From BindingDB's records for doi:10.1021/acs.jmedchem.8b00408 (Duquesne University, 2018)

Assays:
[1] = Binding affinity to human RFC2 expressed in human HeLa R1-11 cells assessed as antiproliferative activity measured as reduction in cell growth after 96 hrs by Cell-Titer Blue assay
[2] = Binding affinity to human PCFT4 expressed in human HeLa R1-11 cells assessed as antiproliferative activity measured as reduction in cell growth after 96 hrs by Cell-Titer Blue assay
[3] = Binding affinity to human RFC expressed in Chinese hamster PC43-10 cells assessed as antiproliferative activity measured as reduction in cell growth after 96 hrs by Cell-Titer Blue assay
[4] = Binding affinity to human FRbeta expressed in Chinese hamster D4 cells assessed as antiproliferative activity measured as reduction in cell growth after 96 hrs by Cell-Titer Blue assay
[5] = molecular target: Folate receptor alpha (Homo sapiens) (UniProt P15328); assay: Binding affinity to human FRalpha expressed in human HeLa R1-11-FR2 cells assessed as antiproliferative activity measured as reduction in cell growth after 96 hrs by Cell-Titer Blue assay
Chain of Folate receptor alpha (Homo sapiens) (P15328 whole entry, looked up): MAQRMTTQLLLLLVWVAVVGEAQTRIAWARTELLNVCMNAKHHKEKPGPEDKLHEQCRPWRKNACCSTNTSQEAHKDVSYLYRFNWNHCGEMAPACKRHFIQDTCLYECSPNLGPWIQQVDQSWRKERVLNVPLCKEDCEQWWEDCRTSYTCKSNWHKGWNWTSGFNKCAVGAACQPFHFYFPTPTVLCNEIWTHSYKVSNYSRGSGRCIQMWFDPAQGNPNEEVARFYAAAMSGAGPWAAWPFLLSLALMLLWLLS

[6] = Binding affinity to human PCFT expressed in Chinese hamster R2/PCFT4 cells assessed as antiproliferative activity measured as reduction in cell growth after 96 hrs by Cell-Titer Blue assay
[7] = Binding affinity to human FRalpha expressed in Chinese hamster RT16 cells assessed as antiproliferative activity measured as reduction in cell growth after 96 hrs by Cell-Titer Blue assay

Row | IC50 [4] [nM] | IC50 [5] [nM] | IC50 [6] [nM] | IC50 [7] [nM] | SMILES | IC50 [1] [nM] | IC50 [2] [nM] | IC50 [3] [nM]
1 |  |  |  |  | Nc1nc2[nH]c(CCCc3csc(C(=O)N[C@@H](CCC(=O)O)C(=O)O)c3)cc2c(=O)[nH]1 | 63 | 40 | 
2 |  |  |  |  | Nc1nc2[nH]c(CCCc3ccc(C(=O)N[C@@H](CCC(=O)O)C(=O)O)s3)cc2c(=O)[nH]1 | 444 |  | 106
3 |  |  |  |  | Nc1nc2[nH]c(CCCCc3csc(C(=O)N[C@@H](CCC(=O)O)C(=O)O)c3)cc2c(=O)[nH]1 | > 1000 | 73 | > 1000
4 |  |  |  |  | Nc1nc2[nH]c(CCCCc3ccc(C(=O)N[C@@H](CCC(=O)O)C(=O)O)nc3)cc2c(=O)[nH]1 | 634 | 9 | > 1000
5 | 3.9 | 5.2 | 3.8 |  | Nc1nc2[nH]c(CCCc3ccc(C(=O)N[C@@H](CCC(=O)O)C(=O)O)c(F)c3)cc2c(=O)[nH]1 | 507 | 5.5 | 62
6 |  |  | 6 |  | Nc1nc2[nH]c(CCCCc3csc(C(=O)N[C@@H](CCC(=O)O)C(=O)O)c3F)cc2c(=O)[nH]1 | 213 | 5 | > 1000
7 | 0.19 | 3.1 | 1.5 | 0.14 | Nc1nc2[nH]c(CCCc3csc(C(=O)N[C@@H](CCC(=O)O)C(=O)O)c3F)cc2c(=O)[nH]1 | 66 |  | 
8 | 0.93 |  | 207 | 1.4 | Nc1nc2[nH]c(CCCCc3ccc(C(=O)N[C@@H](CCC(=O)O)C(=O)O)cc3F)cc2c(=O)[nH]1 |  |  | 
9 |  |  |  |  | Nc1nc2[nH]c(CCCc3ccc(C(=O)N[C@@H](CCC(=O)O)C(=O)O)cc3)cc2c(=O)[nH]1 [(S)-2-(4-(3-(2-amino-4-oxo-4,7-dihydro-3H-pyrrolo[2,3-d]pyrimidin-6-yl)propyl)benzamido)pentanedioic acid] | > 1000 | 9.7 | 304
10 |  |  |  |  | Nc1nc2[nH]c(CCCCc3ccc(C(=O)N[C@@H](CCC(=O)O)C(=O)O)cc3)cc2c(=O)[nH]1 [N-{4-[4-(2-Amino-4-oxo-4,7-dihydro-3H-pyrrolo[2,3-d]pyrimidin-6-yl)butyl]benzoyl}-L-glutamic Acid] | > 1000 |  | > 1000
